Measurements as given in publication PMC8765781, “A platform of assays for the discovery of anti-Zika small-molecules with activity in a 3D-bioprinted outer-blood-retina model” (PLoS ONE, 2022).
Where two headings read alike, the source gives them in different places.

What was measured:
[1] = test system: ZIKV-RLuc (Cambodian strain FSS13025); experiment: microbe, parasite or virus in culture; format: cell-based, Zika virus
[2] = Zika virus, Vero, read-out: Log AC50 (M) (converted)

Structure (SMILES) | CC-v2 (curve class classification v2 of the dose response curve) [1] | Efficacy (difference between neutral response and maximum compound response) [1] | Max Resp (difference between neutral response and compound response for highest compound concentration) [1] | AC50 ([1]; Zika virus, Vero) [M] | AC50 [1, 2] [M] | AC50 (Vero cells) [µM] | Log AC50 (M) (Vero cells) | AC50 [1] [M] | Log AC50 (M) [1]
CC(=O)N(C)C1(c2ccccc2)CCN(CCC[C@]2(c3ccc(Cl)c(Cl)c3)CCCN(C(=O)c3ccccc3)C2)CC1 [NCGC00263110-01] | -2.1 | -124.29 | -100.789 | 1.85e-05 | 1.85e-05 | 18.5 | -4.7327 |  | 
C[C@@H](Oc1cc(-n2cnc3ccc(CN4CCN(C)CC4)cc32)sc1C(N)=O)c1ccccc1C(F)(F)F [NCGC00263112-01] | -2.1 | -113.144 | -99.466 | 6.76e-06 | 6.76e-06 | 6.76 | -5.1699 |  | 
CC(=O)c1c(C)c2cnc(Nc3ccc(N4CCNCC4)cn3)nc2n(C2CCCC2)c1=O [NCGC00263129-04] | -2.2 | -88.43 | -70.898 | 1.65e-05 | 1.65e-05 | 16.5 | -4.7827 |  | 
Nc1nc(Nc2ccc([S+](N)(=O)[O-])cc2)nn1C(=O)c1c(F)cccc1F [NCGC00263151-01] | -2.1 | -94.324 | -90.046 | 1.65e-05 | 1.65e-05 | 16.5 | -4.7827 |  | 
Cc1ccc(C(=O)Nc2ccc(CN3CCN(C)CC3)c(C(F)(F)F)c2)cc1C#Cc1cnc2cccnn12 [NCGC00263152-01] | -1.1 | -88.579 | -98.949 | 1.85e-06 | 1.85e-06 | 1.85 | -5.7327 |  | 
CC(=O)Nc1ccc([C@H](C)C(=O)Nc2ncc(C(C)C)s2)cc1 [NCGC00263191-01] | -1.1 | -109.113 | -98.511 | 2.33e-06 | 2.33e-06 | 2.33 | -5.6327 |  | 
C/C=C1\NC(=O)[C@H]2CSSCC/C=C\[C@H](CC(=O)N[C@H](C(C)C)C(=O)N2)OC(=O)[C@H](C(C)C)NC1=O [NCGC00263220-05] | -1.1 | -96.055 | -99.405 | 2.33e-07 | 2.33e-07 | 0.233 | -6.6327 |  | 
CCOC(CN1C(=O)[C@](CC(=O)Nc2ccc(C)cc2)(NC(=O)Nc2ccc(C)cc2)c2ccccc21)OCC [NCGC00263225-01] | -2.1 | -106.258 | -97.88 | 2.33e-05 | 2.33e-05 | 23.3 | -4.6327 |  | 
Nc1ccc(C(=O)c2cc3c(ccc4ccccc43)[nH]2)cc1 [NCGC00263233-01] | -2.1 | -115.821 | -99.398 | 2.08e-05 | 2.08e-05 | 20.8 | -4.6827 |  | 
CN(C)c1ccc(C(=O)NCCCCCCC(=O)NO)cc1 [NCGC00263617-05] | -1.1 | -93.524 | -92.631 | 1.04e-05 | 1.04e-05 | 10.4 | -4.9827 |  | 
CN1CCCC(CC2c3ccccc3Sc3ccccc32)C1.Cl (stereo not drawn) [NCGC00273481-01] | -3 | -90.373 | -72.236 | 3.69e-05 | 3.69e-05 | 36.9 | -4.4327 |  | 
Cc1c(Cn2c(C)nc3c(C(=O)O)cc(N4CCOCC4)cc32)cccc1C(F)(F)F [NCGC00345796-01] | -2.2 | -74.499 | -73.923 | 1.47e-05 | 1.47e-05 | 14.7 | -4.8327 |  | 
O=C(CCCCCCNC(=O)c1cnc(N(c2ccccc2)c2ccccc2)nc1)NO [NCGC00345802-01] | -2.1 | -102.183 | -84.021 | 1.85e-05 | 1.85e-05 | 18.5 | -4.7327 |  | 
CN(C)Cc1c(C(=O)NCCOc2ccc(C(=O)NO)cc2)oc2ccccc12 [NCGC00346486-01] | -1.1 | -96.645 | -98.785 | 9.28e-06 | 9.27e-06 | 9.28 | -5.0327 |  | 
O=C1NC(=O)/C(=C/c2ccc3nccc(-c4ccncc4)c3c2)S1 [NCGC00346509-02] | -1.1 | -91.751 | -97.47 | 1.47e-06 | 1.47e-06 | 1.47 | -5.8327 |  | 
Cc1ccc(NC(=O)c2ccc(CN3CC[C@H](N(C)C)C3)c(C(F)(F)F)c2)cc1Nc1ncc(-c2cncnc2)cn1 [NCGC00346514-01] | -2.1 | -111.251 | -100.269 | 1.65e-05 | 1.65e-05 | 16.5 | -4.7827 |  | 
C[C@@H]1CC[C@@]2(OC1)O[C@H]1C[C@H]3[C@@H]4CC=C5C[C@@H](O[C@@H]6O[C@H](CO)[C@@H](O[C@@H]7O[C@@H](C)[C@H](O)[C@@H](O)[C@H]7O)[C@H](O)[C@H]6O[C@@H]6O[C@@H](C)[C@H](O)[C@@H](O)[C@H]6O)CC[C@]5(C)[C@H]4CC[C@]3(C)[C@H]1[C@@H]2C [NCGC00346600-01] | -1.1 | -96.499 | -99.01 | 3.29e-06 | 3.29e-06 | 3.29 | -5.4827 |  | 
O=C(O)C1=CO[C@@H](O[C@@H]2O[C@H](CO)[C@@H](O)[C@H](O)[C@H]2O)[C@@H]2C(CO)=CC[C@H]12 [NCGC00346663-03] | -3 | -105.712 | -86.968 | 2.56e-05 | 2.56e-05 | 25.6 | -4.5925 |  | 
CC(C)c1cc(-c2n[nH]c(=O)n2-c2ccc3c(ccn3C)c2)c(O)cc1O [NCGC00346678-01] | -2.2 | -44.79 | -44.962 | 8.27e-06 | 8.27e-06 | 8.27 | -5.0827 |  | 
CC(C)c1cc(-c2n[nH]c(=O)n2-c2ccc3c(ccn3C)c2)c(O)cc1O [NCGC00346678-04] | -2.2 | -65.758 | -62.389 |  |  | 9.28 | -5.0327 | 9.28e-06 | -5.0327
CNC(=O)c1cccc(-c2ccc3c(N4CCOC[C@@H]4C)nc(N4CCOC[C@@H]4C)nc3n2)c1 [NCGC00346698-01] | -2.2 | -76.837 | -71.465 | 1.65e-05 | 1.65e-05 | 16.5 | -4.7827 |  | 
CCN(CC)Cc1ccc2cc(COC(=O)Nc3ccc(C(=O)NO)cc3)ccc2c1 [NCGC00346743-01] | -1.2 | -68.967 | -98.985 | 2.61e-06 | 2.61e-06 | 2.61 | -5.5827 |  | 
COc1cc(C(=O)NC2CCN(C)CC2)ccc1Nc1ncc2c(n1)N(C1CCCC1)CCC(=O)N2C(C)C [NCGC00346965-01] | -2.4 | -47.886 | -47.265 | 1.31e-05 | 1.31e-05 | 13.1 | -4.8827 |  | 
CCOC(=O)N1CCN(/[N+]([O-])=N/Oc2ccc([N+](=O)[O-])cc2C#N)CC1 [NCGC00346969-01] | -1.1 | -94.201 | -99.104 | 3.29e-06 | 3.29e-06 | 3.29 | -5.4827 |  | 
